Measured values taken from article PMC12428610, “Gas-Binding Studies of Class 1 Sugar Beet Phytoglobin and C86A Mutant Using Isothermal Spectral Shifts in High-Precision Microliter Assay” (International Journal of Molecular Sciences, 2025).
“And” between values parts separate entries of the source, which are not always exact repeats. Identical values can stand only once. Like-named read-outs stand apart in the source and are kept apart here.

Assays:
[1] = biological target: BvPgb 1.2 C86A mutant; assay: Isothermal spectral shift (SpS) gas-binding titration, Monolith X, RED-NHS-labeled protein; parameters: species or system Beta vulgaris
From the text: (§1) The microscale capillary-based technology described here employs isothermal spectral shift (SpS). SpS has previously primarily been used for the determination of protein–protein interactions. In this study, we examine the possibility to extend the use of this technique to also include the binding of small ligands, like gases, to proteins. Ligand binding induces shifts in fluorescence spectra (blue- or red-shifts), which are detectable under isothermal conditions via dual-wavelength fluorescence detection at 650 nm and 670 nm. By plotting fluorescence intensity ratios (670/650 nm) against ligand concentration, the SpS-derived KD can be obtained. Our goal is to determine KD or half maximal effective concentrations (EC50) from ligand titration series. Here, we present a streamlined microscale method employing fluorophore-labeled proteins in gas-saturated microscale capillaries.
(§2) The proteins were thus incubated in solutions enriched with either CO or dissolved NONOate, utilizing a loading buffer (PBS-T20) to maintain gas saturation. Subsequent titrations of gas-enriched solutions yielded clear, reproducible dose–response curves.
(§3) All SpS measurements conducted in this study were performed using the Monolith X instrument (NanoTemper Technologies GmbH, München, Germany), which is equipped with dual-emission detection optics. The MO.Control 2software (NanoTemper Technologies GmbH) was used to calculate fluorescence intensity ratios at 670 and 650 nm. KD values were determined by fitting dose–response curves to a binding model that follows the law of mass action with a 1:1 interaction stoichiometry. This model defines the bound fraction, f(cL), at equilibrium for a given ligand concentration, cL, as given by Equation (1):(1) fcL=cL+cT+KD−cL+cT+KD^2−4cLcT/2cT where cT is the final concentration of target in the assay. The KD is estimated by fitting Equation (1) with the ratiometric expression seen in Equation (2):(2) RcL=Rf+fcL·Rb−Fb/Ff·Rf/1+fcL·Fb/Ff−1 where R(cL) represents the 670 nm/650 nm ratio at a given cL, Rf corresponds to the ratio of the free target, and Rb corresponds to the bound complex. The parameters Fb and Ff, derived from the sigmoidal dose–response curve fitting of the […], adjust for ligand-induced changes in fluorescence intensity at 650 nm.
(§4) Covalent labeling of primary amines was performed using the Protein Labeling Kit RED-NHS 2nd Generation (cat# MO-L011; NanoTemper Technologies GmbH). The assay buffer (PBS-T20) was prepared by supplementing degassed PBS pH 7.4 (cat# 21-040-CV; Corning, NY, USA) with 0.05% Tween20. Purified proteins in Tris were subjected to buffer exchange using the A-column prior to labeling. Briefly, a twofold molar excess of dye was added to the protein prepared to a final concentration of 20 µM. Proteins and dye were incubated for 30 min at room temperature in the dark to avoid photobleaching. Free dye was removed from the labeled protein using the provided B-column. Labeled proteins were kept in the dark and on ice awaiting capillary loading.
(§5) A working 1 mM CO solution was prepared by sparging PBS-T20 with CO, with the concentration approximated through Henry’s law for CO dissolvability in water (kH(CO) ≈ 0.001 mol l^−1 bar^−1). A working 2 mM NO solution (kH(NO) ≈ 0.002 mol l^−1 bar^−1) was prepared by dissolving 25 mg of NONOate (cat# D184-25MG; Merck, Darmstadt, Germany) in 15 mL of PBS-T20 to obtain a 10.75 mM solution, which provides a 10-molar excess of saturation upon decomposition. The NONOate PBS-T20 solution was gently agitated to create a gas-buffer zone to capture decomposing NONOate. Ligand solutions were prepared as 16-point serial dilutions of 10 µL in PCR-strip tubes, before being mixed by means of aspiration with 10 µL of labeled protein and incubated for 5 min. […]

[2] = biological target: BvPgb 1.2 recombinant wild type (rWT); assay: as above; parameters: species or system Beta vulgaris
From the text: as §1, §2, §3, §4, §5

[3] = biological target: BvPgb 1.2; assay: Flash photolysis and stopped-flow rapid mixing; KD calculated per Equation (3); type: binding, Beta vulgaris; details: rWT, calculated per Equation (3) KD,obs=koff(1+KH)/kon from kinetic parameters of ref 30
From the text: Our obtained results are consistent with KD values derivable from earlier work, where kinetic parameters for BvPgb 1.2 were obtained using stopped-flow rapid mixing and flash photolysis, allowing the calculation of a single apparent KD per gas. While not explicitly reported, KD can be estimated from those data using Equation (3):(3) KD,obs=koff(1+KH)/kon where KH is the hexacoordination equilibrium constant and the (1 + KH) factor is used to account for the “penalty” imposed by the hexacoordinated fraction. […] The additional lower KD or EC50 for CO (400–500 nM) observed with our method likely reflects the contribution of the closed protein form, consistent with the 100–1000-fold kinetic differences reported in [27, 28, 29].

[4] = first transition of biphasic dose-response, read-out: EC50, CO binding, first transition
[5] = second transition of biphasic dose-response, read-out: EC50, CO binding, second transition
[6] = PBS-T20 pH 7.4, NO from NONOate, read-out: KD(NO), Isothermal Spectral Shift
[7] = text and figure legend, read-out: KD, NO binding

Row | Compound | KD(CO, closed) /EC50,2, Isothermal Spectral Shift ([1]; PBS-T20 pH 7.4) | KD(CO, open) /EC50,1, Isothermal Spectral Shift ([1]; PBS-T20 pH 7.4) | EC50 [1, 4] | EC50 [1, 5] | KD(CO, closed) /EC50,2, Isothermal Spectral Shift ([2]; PBS-T20 pH 7.4) | KD(CO, open) /EC50,1, Isothermal Spectral Shift ([2]; PBS-T20 pH 7.4) | EC50 [2, 4] | EC50 [2, 5] | Kd ([3]; read-out: KD(CO, open), Flash Photolysis and Stopped-Flow Rapid Mixing) | Kd [1, 6] | Kd [1, 7] | Kd [2, 6] | Kd [2, 7] | Kd ([3]; read-out: KD(NO), Flash Photolysis and Stopped-Flow Rapid Mixing)
1 | [C-]#[O+] [CO, carbon monoxide] | 500 ± 200 nM | 400000 ± 300000 nM | ~500 nM | ~400000 nM | 400 ± 100 nM | 700000 ± 200000 nM | ~400 nM | ~700000 nM | ~100000 nM | – | – | – | – | –
2 | nitric oxide [NO] | – | – | – | – | – | – | – | – | – | 400 ± 100 nM | 400 nM and ~400 nM | 1600 ± 100 nM | 1600 nM and ~1600 nM | ~6400 nM
